From patent US12180187B2, “1-phenyl-5-azinylpyrazolyl-3-oxyalkyl acids and their use for controlling unwanted plant growth” (BAYER AKTIENGESELLSCHAFT, priority 2019, dated 2024)

What was measured:
ALOMY [1] = assay: Pre-emergence action against ALOMY, 1280 g/ha; assay type: in vivo, Alopecurus myosuroides; details: visual scoring after about 3 weeks vs untreated controls, 100% = plants have died, 0% = like control plants
Source text: (§1) 1. Pre-Emergence Herbicidal Effect and Crop Plant Compatibility a) Seeds of mono- and dicotyledonous weed plants are placed in plastic pots in sandy loam soil (doubly sown with one species each of mono- or dicotyledonous weed plants per pot) and covered with soil. The compounds of the invention, formulated in the form of wettable powders (WP) or as emulsion concentrates (EC), are then applied onto the surface of the covering soil as aqueous suspension or emulsion with addition of 0.5% additive at a water application rate equivalent to 600 litres per hectare. After the treatment, the pots are placed in a greenhouse and kept under good growth conditions for the trial plants. After about 3 weeks, the effect of the preparations is scored visually in comparison with untreated controls as percentages. For example, 100% activity=the plants have died, 0% activity=like control plants. 1. Pre-Emergence Effectiveness Tables 1 to 12 below show the effects of selected compounds of the general formula (I) according to Tables 1 and 2 on various harmful plants and at an application rate corresponding to 1280 g/ha, which were obtained by the experimental procedure mentioned above.

AMARE [2] = assay: Pre-emergence action against AMARE, 1280 g/ha; assay type: in vivo, Amaranthus retroflexus; details: scored visually after about 3 weeks vs untreated controls (100% = plants have died)
Source text: as §1

POAAN [3] = assay: Pre-emergence action against POAAN, 1280 g/ha; assay type: in vivo, Poa annua; details: visual scoring after about 3 weeks vs untreated controls, 100% = plants have died, 0% = like control plants
Source text: as §1

LOLRI = assay: Pre-emergence action against LOLRI, 1280 g/ha; assay type: in vivo, Lolium rigidum; details: visual scoring after about 3 weeks vs untreated controls, 100% = plants have died, 0% = like control plants
Source text: as §1

SETVI = assay: Pre-emergence action against SETVI, 1280 g/ha; assay type: in vivo, Setaria viridis; details: visual scoring after about 3 weeks vs untreated controls, 100% = plants have died, 0% = like control plants
Source text: as §1

MATIN [4] = assay: Pre-emergence action against MATIN, 1280 g/ha; assay type: in vivo, Tripleurospermum inodorum (Matricaria inodora); details: scored visually after about 3 weeks vs untreated controls (100% = plants have died)
Source text: as §1

AMARE [5] = assay: Post-emergence action against AMARE, 1.28 kg/ha; assay type: in vivo, Amaranthus retroflexus; details: dosage 1280 g/ha, visual rating about 3 weeks after treatment vs untreated controls (100% = plants died)
Method: (§2) • a) Seeds of mono- and dicotyledonous weed plants are placed in plastic pots in sandy loam soil (twin sowing with one species each of mono- or dicotyledonous weed plants per pot), covered with soil and cultivated in a greenhouse under controlled growth conditions. 2 to 3 weeks after sowing, the test plants are treated at the one-leaf stage. The compounds of the invention, formulated in the form of wettable powders (WP) or as emulsion concentrates (EC), are applied to the green parts of the plants as aqueous suspension or emulsion with addition of 0.5% additive at a water application rate equivalent to 600 litres per hectare. After the test plants have been kept in the greenhouse under optimum growth conditions for about 3 weeks, the activity of the preparations is rated visually in comparison to untreated controls. For example, 100% activity=the plants have died, 0% activity=like control plants. As shown by the results, compounds of the general formula (I) of the invention, in post-emergence treatment, have very good herbicidal efficacy (90% to 100% herbicidal action) against harmful plants such as Abutilon theophrasti, Digitaria sanguinalis, Echinochloa crus-galli, Matricaria inodora, Poa annua, at an application rate of 1.28 kg of active substance per hectare.

DIGSA [6] = assay: Pre-emergence action against DIGSA, 1280 g/ha; assay type: in vivo, Digitaria sanguinalis; details: visual scoring after about 3 weeks vs untreated controls, 100% = plants have died, 0% = like control plants
Source text: as §1

STEME = assay: Pre-emergence action against STEME, 1280 g/ha; assay type: in vivo, Stellaria media; details: scored visually after about 3 weeks vs untreated controls (100% = plants have died)
Source text: as §1

VERPE [7] = assay: Pre-emergence action against VERPE, 1280 g/ha; assay type: in vivo, Veronica persica; details: scored visually after about 3 weeks vs untreated controls (100% = plants have died)
Source text: as §1

VERPE [8] = assay: Post-emergence action against VERPE, 1.28 kg/ha; assay type: in vivo, Veronica persica; details: dosage 1280 g/ha, visual rating about 3 weeks after treatment vs untreated controls (100% = plants died)
Method: as §2

ALOMY [9] = assay: Post-emergence action against ALOMY, 1.28 kg/ha; assay type: in vivo, Alopecurus myosuroides; details: dosage 1280 g/ha, visual rating about 3 weeks after treatment vs untreated controls
Method: as §2

ECHCG = assay: Pre-emergence action against ECHCG, 1280 g/ha; assay type: in vivo, Echinochloa crus-galli; details: visual scoring after about 3 weeks vs untreated controls, 100% = plants have died, 0% = like control plants
Source text: as §1

POAAN [10] = assay: Post-emergence action against POAAN, 1.28 kg/ha; assay type: in vivo, Poa annua; details: dosage 1280 g/ha, visual rating about 3 weeks after treatment vs untreated controls
Method: as §2

MATIN [11] = assay: Post-emergence action against MATIN, 1.28 kg/ha; assay type: in vivo, Tripleurospermum inodorum (Matricaria inodora); details: dosage 1280 g/ha, visual rating about 3 weeks after treatment vs untreated controls (100% = plants died)
Method: as §2

DIGSA [12] = assay: Post-emergence action against DIGSA, 1.28 kg/ha; assay type: in vivo, Digitaria sanguinalis; details: dosage 1280 g/ha, visual rating about 3 weeks after treatment vs untreated controls
Method: as §2

| Structure (SMILES) | Pre-emergence action against ALOMY (ALOMY [1]) [%] | Pre-emergence action against AMARE (AMARE [2]) [%] | Pre-emergence action against POAAN (POAAN [3]) [%] | Pre-emergence action against SETVI (SETVI) [%] | Pre-emergence action against MATIN (MATIN [4]) [%] | Post-emergence action against AMARE (AMARE [5]) [%] | Pre-emergence action against DIGSA (DIGSA [6]) [%] | Pre-emergence action against STEME (STEME) [%] | Pre-emergence action against VERPE (VERPE [7]) [%] | Post-emergence action against VERPE (VERPE [8]) [%] | Post-emergence action against ALOMY (ALOMY [9]) [%] | Post-emergence action against POAAN (POAAN [10]) [%] | Post-emergence action against MATIN (MATIN [11]) [%] | other results |
| --- | --- | --- | --- | --- | --- | --- | --- | --- | --- | --- | --- | --- | --- | --- |
| COC(=O)[C@@H](C)Oc1nn(-c2ccccc2F)c(-c2cnccn2)c1Br [Example I-001] | 90 | 100 | 100 | 90 | 90 | 90 | 90 | 100 | 100 |  |  |  |  | Pre-emergence action against LOLRI (LOLRI): 90% |
| O=C(COc1nn(-c2ccccc2F)c(-c2ccc(F)nc2)c1Br)N1CCSC1=O [Example X-011] |  | 100 | 100 | 100 | 90 | 90 | 100 |  | 100 | 90 | 90 | 100 | 100 | Pre-emergence action against ECHCG (ECHCG): 100% |
| O=C(O)C1CCCN(C(=O)COc2nn(-c3ccccc3F)c(-c3cncc(F)c3)c2Br)C1 (stereo not drawn) [Example X-033] | 90 | 90 | 100 | 90 | 90 | 100 | 90 | 90 | 90 | 100 | 100 | 100 | 100 | Post-emergence action against DIGSA (DIGSA [12]): 90% |
| N#CCCNC(=O)COc1nn(-c2ccccc2F)c(-c2ccc(F)cn2)c1Br [II-005] |  | 90 |  |  |  |  |  |  |  |  |  |  |  |  |
| COC(=O)CNC(=O)COc1nn(-c2ccccc2F)c(-c2ccc(F)cn2)c1Br [II-013] | 90 | 90 | 100 | 100 | 90 |  | 100 | 100 | 100 | 90 | 90 | 90 | 90 | Pre-emergence action against LOLRI (LOLRI): 100%; Pre-emergence action against ECHCG (ECHCG): 90% |
| O=C(COc1nn(-c2ccc(F)cc2F)c(-c2ccc(F)cn2)c1Br)NO [II-018] |  |  |  |  |  | 100 |  |  |  |  |  |  | 90 |  |
| CCOC(=O)COc1nn(-c2ccccc2F)c(-c2ccnnc2)c1C#N [IV-003, Ethyl {[4-cyano-1-(2-fluorophenyl)-5-(pyridazin-4-yl)-1H-pyrazol-3-yl]oxy}acetate] |  |  |  |  |  | 90 |  |  |  |  | 100 |  |  | pest or weed control at 1280 g/ha (VERPE [8]; Veronica persica, 504 h): 90%; pest or weed control at 1280 g/ha (AMARE [2]; Amaranthus retroflexus, 504 h): 90%; pest or weed control at 1280 g/ha (POAAN [3]; Poa annua, 504 h): 90%; pest or weed control at 1280 g/ha (SETVI; Setaria viridis, 504 h): 100%; pest or weed control at 1280 g/ha (MATIN [4]; Tripleurospermum inodorum, 504 h): 90%; pest or weed control at 1280 g/ha (STEME; Stellaria media, 504 h): 100%; pest or weed control at 1280 g/ha (VERPE [7]; Veronica persica, 504 h): 100% |
| COC(=O)[C@@H](C)Oc1nn(-c2ccccc2F)c(-c2cncnc2)c1Cl [VI-017] | 90 | 100 | 90 |  | 100 | 90 |  | 90 | 100 |  |  |  |  |  |
